Tests used:
α-glucosidase [1] = biological target: T1, α-glucosidase (Saccharomyces cerevisiae, UniProt P53341); assay: α-Glucosidase inhibition assay; format: biochemical
α-amylase = settings: 100 µM
α-glucosidase [2] = biological target: T1, α-glucosidase; assay: Enzyme kinetic study; format: biochemical

T1 sequence (P53341 whole entry): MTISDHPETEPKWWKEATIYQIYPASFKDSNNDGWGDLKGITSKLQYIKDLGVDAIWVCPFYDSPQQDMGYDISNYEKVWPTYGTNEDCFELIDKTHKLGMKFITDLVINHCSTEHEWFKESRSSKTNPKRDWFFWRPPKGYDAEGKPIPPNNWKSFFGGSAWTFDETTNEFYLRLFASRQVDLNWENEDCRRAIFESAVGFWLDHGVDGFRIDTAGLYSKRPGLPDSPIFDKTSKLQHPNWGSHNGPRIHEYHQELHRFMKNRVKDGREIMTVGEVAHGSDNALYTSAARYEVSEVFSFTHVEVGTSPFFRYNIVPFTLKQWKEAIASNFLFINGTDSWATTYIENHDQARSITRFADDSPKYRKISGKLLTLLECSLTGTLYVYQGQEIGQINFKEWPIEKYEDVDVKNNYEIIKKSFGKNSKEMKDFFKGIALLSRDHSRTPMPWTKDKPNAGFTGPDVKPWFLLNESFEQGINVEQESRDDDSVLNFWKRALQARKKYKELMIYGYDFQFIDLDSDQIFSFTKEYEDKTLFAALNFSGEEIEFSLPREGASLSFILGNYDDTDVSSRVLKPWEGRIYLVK

Row | IC50 (α-glucosidase [1]) | Compound | further results
1 | 38.18 ± 0.14 µM | N#Cc1c(-c2ccc(Cl)cc2)c(N)c(-c2ccccc2)n2nc(-c3ccccc3)nc12 [Compound 15q, 6-Amino-7-(4-chlorophenyl)-2,5-diphenyl-^1,2,4triazolo[1,5-a]pyridine-8-carbonitrile] | –
2 | 21.49 ± 0.09 µM | Cc1ccc(-c2c(N)c(-c3cccs3)n3nc(-c4ccccc4)nc3c2C#N)cc1 [Compound 15l, 6-Amino-2-phenyl-5-(thiophen-2-yl)-7-(p-tolyl)-^1,2,4triazolo[1,5-a]pyridine-8-carbonitrile] | –
3 | 14.4 ± 0.43 µM | Cc1ccc(-c2c(N)c(-c3ccccc3)n3nc(-c4ccccc4)nc3c2C#N)cc1 [Compound 15h, 6-Amino-2,5-diphenyl-7-(p-tolyl)-^1,2,4triazolo[1,5-a]pyridine-8-carbonitrile] | –
4 | 9.69 ± 0.09 µM | N#Cc1c(-c2ccccc2)c(N)c(-c2ccc(Cl)cc2)n2nc(-c3ccccc3)nc12 [Compound 15c, 6-Amino-5-(4-chlorophenyl)-2,7-diphenyl-^1,2,4triazolo[1,5-a]pyridine-8-carbonitrile] | –
5 | 14.8 ± 0.22 µM | COc1ccc(-c2nc3c(C#N)c(-c4ccccc4)c(N)c(-c4ccccc4)n3n2)cc1 [Compound 15u, 6-Amino-2-(4-methoxyphenyl)-5,7-diphenyl-^1,2,4triazolo[1,5-a]pyridine-8-carbonitrile] | –
6 | – | C[C@H]1O[C@H](O[C@H]2[C@H](O)[C@@H](O)[C@@H](O[C@H]3[C@H](O)[C@@H](O)C(O)O[C@@H]3CO)O[C@@H]2CO)[C@H](O)[C@@H](O)[C@@H]1N[C@H]1C=C(CO)[C@@H](O)[C@H](O)[C@H]1O (some centres unmarked) [Acarbose] | inhibition (α-amylase): 50.1 ± 0.5%
7 | 20.32 ± 0.11 µM | N#Cc1c(-c2ccccc2)c(N)c(-c2ccccc2)n2nc(-c3ccccc3)nc12 [Compound 15a, 6-Amino-2,5,7-triphenyl-^1,2,4triazolo[1,5-a]pyridine-8-carbonitrile] | –
8 | 22.31 ± 0.08 µM | COc1ccc(-c2c(N)c(-c3ccc(OC)cc3)n3nc(-c4ccccc4)nc3c2C#N)cc1 [Compound 15n, 6-Amino-5,7-bis(4-methoxyphenyl)-2-phenyl-^1,2,4triazolo[1,5-a]pyridine-8-carbonitrile] | –
9 | 31.49 ± 0.08 µM | N#Cc1c(-c2ccc(Cl)cc2)c(N)c(-c2ccc(Cl)cc2)n2nc(-c3ccccc3)nc12 [Compound 15s, 6-Amino-5,7-bis(4-chlorophenyl)-2-phenyl-^1,2,4triazolo[1,5-a]pyridine-8-carbonitrile] | –
10 | 49.96 ± 0.11 µM | COc1ccc(-c2c(N)c(-c3ccc(Cl)cc3)c(C#N)c3nc(-c4ccccc4)nn23)cc1 [Compound 15r, 6-Amino-7-(4-chlorophenyl)-5-(4-methoxyphenyl)-2-phenyl-^1,2,4triazolo[1,5-a]pyridine-8-carbonitrile] | –
11 | 7.64 ± 0.13 µM | COc1ccc(-c2c(N)c(-c3ccc(Cl)cc3)n3nc(-c4ccccc4)nc3c2C#N)cc1 [Compound 15o, 6-Amino-5-(4-chlorophenyl)-7-(4-methoxyphenyl)-2-phenyl-^1,2,4triazolo[1,5-a]pyridine-8-carbonitrile] | –
12 | 75.63 ± 0.44 µM | N#Cc1c(-c2ccc(Cl)cc2)c(N)c(-c2cccs2)n2nc(-c3ccccc3)nc12 [Compound 15t, 6-Amino-7-(4-chlorophenyl)-2-phenyl-5-(thiophen-2-yl)-^1,2,4triazolo[1,5-a]pyridine-8-carbonitrile] | –
13 | 25.5 ± 0.23 µM | COc1ccc(-c2c(N)c(-c3ccccc3)c(C#N)c3nc(-c4ccccc4)nn23)cc1 [Compound 15b, 6-Amino-5-(4-methoxyphenyl)-2,7-diphenyl-^1,2,4triazolo[1,5-a]pyridine-8-carbonitrile] | –
14 | 25.13 ± 0.24 µM | N#Cc1c(-c2ccccc2)c(N)c(-c2ccccc2)n2nc(-c3ccc(Cl)cc3)nc12 [Compound 15v, 6-Amino-2-(4-chlorophenyl)-5,7-diphenyl-^1,2,4triazolo[1,5-a]pyridine-8-carbonitrile] | –
15 | 29.89 ± 0.17 µM | Cc1ccc(-c2c(N)c(-c3ccc(Br)cc3)n3nc(-c4ccccc4)nc3c2C#N)cc1 [Compound 15k, 6-Amino-5-(4-bromophenyl)-2-phenyl-7-(p-tolyl)-^1,2,4triazolo[1,5-a]pyridine-8-carbonitrile] | –
16 | 8.43 ± 0.25 µM | COc1ccc(-c2c(N)c(-c3ccc(C)cc3)c(C#N)c3nc(-c4ccccc4)nn23)cc1 [Compound 15i, 6-Amino-5-(4-methoxyphenyl)-2-phenyl-7-(p-tolyl)-^1,2,4triazolo[1,5-a]pyridine-8-carbonitrile] | –
17 | 45.73 ± 0.29 µM | N#Cc1c(-c2ccccc2)c(N)c(-c2cccs2)n2nc(-c3ccccc3)nc12 [Compound 15g, 6-Amino-2,7-diphenyl-5-(thiophen-2-yl)-^1,2,4triazolo[1,5-a]pyridine-8-carbonitrile] | –
18 | 32 ± 0.32 µM | N#Cc1c(-c2ccccc2)c(N)c(-c2ccc(Br)cc2)n2nc(-c3ccccc3)nc12 [Compound 15f, 6-Amino-5-(4-bromophenyl)-2,7-diphenyl-^1,2,4triazolo[1,5-a]pyridine-8-carbonitrile] | –
19 | 45.54 ± 0.25 µM | N#Cc1c(-c2ccccc2)c(N)c(-c2cccc(Cl)c2)n2nc(-c3ccccc3)nc12 [Compound 15d, 6-Amino-5-(3-chlorophenyl)-2,7-diphenyl-^1,2,4triazolo[1,5-a]pyridine-8-carbonitrile] | –
20 | 9.18 ± 0.12 µM | COc1ccc(-c2c(N)c(-c3ccccc3)n3nc(-c4ccccc4)nc3c2C#N)cc1 [Compound 15m, 6-Amino-7-(4-methoxyphenyl)-2,5-diphenyl-^1,2,4triazolo[1,5-a]pyridine-8-carbonitrile] | –
21 | 60.64 ± 0.18 µM | N#Cc1c(-c2ccccc2)c(N)c(-c2ccccc2Cl)n2nc(-c3ccccc3)nc12 [Compound 15e, 6-Amino-5-(2-chlorophenyl)-2,7-diphenyl-^1,2,4triazolo[1,5-a]pyridine-8-carbonitrile] | –
22 | 36.33 ± 0.09 µM | COc1ccc(-c2c(N)c(-c3cccs3)n3nc(-c4ccccc4)nc3c2C#N)cc1 [Compound 15p, 6-Amino-7-(4-methoxyphenyl)-2-phenyl-5-(thiophen-2-yl)-^1,2,4triazolo[1,5-a]pyridine-8-carbonitrile] | –
23 | 6.6 ± 0.09 µM | Cc1ccc(-c2c(N)c(-c3ccc(Cl)cc3)n3nc(-c4ccccc4)nc3c2C#N)cc1 [Compound 15j, 6-Amino-5-(4-chlorophenyl)-2-phenyl-7-(p-tolyl)-^1,2,4triazolo[1,5-a]pyridine-8-carbonitrile] | Ki (α-glucosidase [2]): 6.6 µM; α-glucosidase inhibition mode (α-glucosidase [2]; Lineweaver-Burk plot: Km increases, Vmax unchanged): competitive; Maximum velocity (Vm) of the treated enzyme (α-glucosidase [2]; enzyme treated with 6.6 µM compound 15j, untreated 62.5): 62.5 (nmol min^− 1)
